Measured values published in patent publication US20230265151A1, “GIP/GLP1 CO-AGONIST COMPOUNDS” (priority 2020, published 2023).
Read-outs that look alike come from different tables or passages of the source.

How the values were obtained:
[1] = target: T1, human GIP receptor (hGIPR) (Homo sapiens, UniProt P48546); assay: [125I]-GIP binding, SPA with membranes of CHO cells expressing hGIPR; conditions: human GIPR; geometric mean (SEM, n); read-out: Binding Affinity Ki, nM (SEM, n) hGIPR
T1 construct: expressed in transfected cells; crude membranes
T1 sequence (P48546 22-466): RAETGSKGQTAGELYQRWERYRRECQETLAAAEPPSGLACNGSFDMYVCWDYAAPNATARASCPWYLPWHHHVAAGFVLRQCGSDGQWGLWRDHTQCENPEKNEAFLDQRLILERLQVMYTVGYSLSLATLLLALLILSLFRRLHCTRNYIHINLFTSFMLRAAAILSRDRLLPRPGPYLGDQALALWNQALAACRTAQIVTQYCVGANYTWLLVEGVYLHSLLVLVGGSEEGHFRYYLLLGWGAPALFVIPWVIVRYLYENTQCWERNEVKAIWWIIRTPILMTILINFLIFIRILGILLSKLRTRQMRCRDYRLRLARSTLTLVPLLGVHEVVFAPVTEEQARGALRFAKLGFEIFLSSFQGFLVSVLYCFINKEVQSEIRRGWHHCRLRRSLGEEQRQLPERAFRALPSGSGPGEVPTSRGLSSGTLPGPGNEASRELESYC
Procedure: Two methods are used for the preparation of crude cell membranes.
Method 1: Frozen cell pellets are lysed on ice in hypotonic buffer containing 50 mM Tris HCl, pH 7.5, and Roche Complete™ Protease Inhibitors with EDTA. […] The homogenate is centrifuged at 4° C. at 1100 × g for 10 minutes. The supernatant is collected and stored on ice while the pellets are resuspended in homogenization buffer and rehomogenized as described above. The homogenate is centrifuged at 1100 × g for 10 minutes. The second supernatant is combined with the first supernatant and centrifuged at 35000 × g for 1 hour at 4° C. The resulting membrane pellet is resuspended in homogenization buffer containing protease inhibitors at approximately 1 to 3 mg/mL, quick frozen in liquid nitrogen and stored as aliquots in a -80° C. freezer until use.
The homogenate is centrifuged at 4° C. at 1800 × g for 15 minutes. The supernatant is collected and stored on ice while the pellets are resuspended in homogenization buffer (without DNAse I) and rehomogenized as described above. The homogenate is centrifuged at 1800 × g for 15 minutes. The second supernatant is combined with the first supernatant and centrifuged an additional time at 1800 × g for 15 minutes. The overall supernatant is then centrifuged at 25000 × g for 30 minutes at 4° C. The resulting membrane pellet is resuspended in homogenization buffer (without DNAse I) containing protease inhibitors at approximately 1 to 3 mg/mL and stored as aliquots in a -80° C. freezer until use.
The binding buffer contains 25 mM HEPES, pH 7.4, 2.5 mM CaCl2, 1 mM MgCl2, 0.1% (w/v) bacitracin, 0.003% (w/v) TWEEN®-20, and Roche Complete™ Protease Inhibitors without EDTA. Peptides and GIP are thawed and 3 fold serially diluted in 100% DMSO (10 point concentration response curves). […] Plates are sealed and mixed on a plate shaker (setting 6) for 1 minute and read with a PerkinElmer Trilux MicroBeta® scintillation counter after 2.5 to 12 hours of incubation/settling time at room temperature.
Raw CPM data for concentration curves of peptides, Gcg, GLP-1, or GIP are converted to percent inhibition by subtracting nonspecific binding (binding in the presence of excess unlabeled Gcg, GLP-1, or GIP, respectively) from the individual CPM values and dividing by the total binding signal, also corrected by subtracting nonspecific binding. Data are analyzed using four-parameter (curve maximum, curve minimum, IC50, Hill slope) nonlinear regression routines (Genedata Screener, version 12.0.4, Genedata AG, Basal, Switzerland). […] Values for Ki are reported as the geometric mean, with error expressed as the standard error of the mean (SEM) and n is equal to the number of independent replicates (determined in assays performed on different days). Geometric Means are calculated as follows: […]
The Ki Ratio (Ki for native control peptide/Ki for test compound) at each receptor and each species is calculated. The Ki Ratio is a rapid indication of the apparent affinity of a peptide compared to the native control peptide.
n=⅟x means that only one value out of the total number of replicates (x) is used to express the mean. SEM is only calculated when n=2 or greater non-qualified results exist. Means are expressed as GeoMetric means with the standard error of the mean (SEM) and the number of replicates (n) indicated in parenthesis.

hGIPR = target: T2, hGIPR (Homo sapiens, UniProt P48546); assay: Functional cAMP formation (HTRF) in HEK-293 clonal cells expressing hGIPR, 0.1% bovine casein, without or with 1.0% human serum albumin; assay type: cell-based; conditions: for EC50: geometric mean, read-out: hGIPR EC50, nM (SEM, n); for Emax: read-out: hGIPR Emax, % ± SEM
T2 construct: expressed in transfected cells
T2 sequence (P48546 22-466): T1 sequence (P48546 22-466)
How it was run: (§1)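 Readings of the HTRF 665/620 nm ratio, which falls as cAMP rises, were converted to nM cAMP using a standard curve after 30 min peptide exposure at 37° C.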

hGCGR = target: T3, hGCGR (Homo sapiens, UniProt P47871); assay: Functional cAMP formation (HTRF) in HEK-293 clonal cells expressing hGCGR, 0.1% bovine casein, without or with 1.0% human serum albumin; assay type: cell-based; conditions: geometric mean, read-out: hGCGR EC50, nM (SEM, n)
T3 construct: expressed in transfected cells
T3 sequence (P47871 26-477): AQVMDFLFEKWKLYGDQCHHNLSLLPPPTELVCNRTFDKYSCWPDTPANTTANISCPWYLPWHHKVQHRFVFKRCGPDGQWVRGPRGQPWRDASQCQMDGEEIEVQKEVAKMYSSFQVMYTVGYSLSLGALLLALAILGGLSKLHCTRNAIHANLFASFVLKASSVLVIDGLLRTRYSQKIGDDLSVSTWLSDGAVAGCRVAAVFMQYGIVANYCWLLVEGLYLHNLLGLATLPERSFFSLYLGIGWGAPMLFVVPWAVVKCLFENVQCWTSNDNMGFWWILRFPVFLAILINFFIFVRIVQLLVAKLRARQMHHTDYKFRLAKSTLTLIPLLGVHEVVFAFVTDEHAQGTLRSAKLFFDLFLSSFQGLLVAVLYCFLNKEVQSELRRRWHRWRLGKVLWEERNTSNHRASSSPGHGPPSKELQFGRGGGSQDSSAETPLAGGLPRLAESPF
How it was run: as §1

hGLP-1R = hGLP-1R (Homo sapiens, UniProt P43220); assay: Functional cAMP formation (HTRF) in HEK-293 clonal cells expressing hGLP-1R, 0.1% bovine casein, without or with 1.0% human serum albumin; assay type: cell-based; set-up: expressed in transfected cells; conditions: for EC50: geometric mean, read-out: hGLP-1R EC50, nM (SEM, n); for Emax: read-out: hGLP-1R Emax, % ± SEM
Sequence of hGLP-1R (P43220 24-463): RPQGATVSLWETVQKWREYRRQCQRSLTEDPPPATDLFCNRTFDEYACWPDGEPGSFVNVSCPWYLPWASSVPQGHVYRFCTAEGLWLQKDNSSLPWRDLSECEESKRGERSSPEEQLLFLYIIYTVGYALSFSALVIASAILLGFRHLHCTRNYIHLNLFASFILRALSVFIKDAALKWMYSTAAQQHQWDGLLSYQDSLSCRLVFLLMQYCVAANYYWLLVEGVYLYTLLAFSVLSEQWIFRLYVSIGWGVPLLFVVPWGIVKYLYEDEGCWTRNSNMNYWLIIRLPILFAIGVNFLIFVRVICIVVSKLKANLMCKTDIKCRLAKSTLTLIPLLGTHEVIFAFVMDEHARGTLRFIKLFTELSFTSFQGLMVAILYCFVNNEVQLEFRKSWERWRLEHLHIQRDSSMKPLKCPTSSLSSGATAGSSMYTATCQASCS
How it was run: as §1

[2] = 0.1% bovine casein and 1.0% human serum albumin, 37° C.
[3] = cAMP, incubated at 37° C., 0.1% bovine casein (no human serum albumin)
[4] = HEK293, 0.1% bovine casein and 1.0% human serum albumin, 37° C., percent of maximal response to GIP(1-42)NH2
[5] = HEK293, percent of maximal response to GIP(1-42)NH2, 37° C., 0.1% bovine casein, arithmetic mean

Row | Structure (SMILES) | Ki [1] | EC50 (hGIPR; [2]) | EC50 (hGIPR; [3]) | EC50 (hGCGR; [2]) | EC50 (hGCGR; [3]) | EC50 (hGLP-1R; [2]) | EC50 (hGLP-1R; [3]) | Emax (hGIPR; [4]) | Emax (hGIPR; [5]) | Emax (hGLP-1R; HEK293, 0.1% bovine casein and 1.0% human serum albumin, 37° C., percent of maximal response to GLP-1(7-36)NH2) | Emax (hGLP-1R; HEK293, percent of maximal response to GLP-1(7-36)NH2, 37° C., 0.1% bovine casein, arithmetic mean)
1 | CC[C@H](C)[C@H](NC(=O)[C@H](CC(C)C)NC(=O)[C@](C)(Cc1ccc(O)cc1)NC(=O)[C@@H](CCC(=O)O)NC(=O)[C@@H](NC(=O)[C@H](Cc1ccccc1)NC(=O)[C@H](CCC(=O)O)NC(=O)C(C)(C)NC(=O)[C@H](CCC(N)=O)NC(=O)[C@H](C)NC(=O)[C@H](CCCCNC(=O)[C@@H](N)CCCCNC(=O)[C@@H](N)CCCCNC(=O)CC[C@H](NC(=O)CCCCCCCCCCCCC(=O)O)C(=O)O)NC(=O)[C@H](CCCN)NC(=O)[C@H](CC(=O)O)NC(=O)[C@H](CC(C)C)NC(=O)[C@](C)(CC(C)C)NC(=O)[C@@H](NC(=O)[C@H](CO)NC(=O)[C@H](Cc1ccncc1)NC(=O)[C@H](CC(=O)O)NC(=O)[C@H](CO)NC(=O)[C@@H](NC(=O)[C@](C)(Cc1ccccc1F)NC(=O)[C@@H](NC(=O)CNC(=O)[C@H](CCC(=O)O)NC(=O)C(C)(C)NC(=O)[C@@H](N)Cc1ccc(O)cc1)[C@@H](C)O)[C@@H](C)O)[C@@H](C)CC)[C@@H](C)CC)C(=O)N[C@@H](CCC(=O)O)C(=O)NCC(=O)NCC(=O)N[C@@H](CCCCNC(=O)[C@@H](N)CCCCNC(=O)[C@@H](N)CCCCNC(=O)CC[C@H](NC(=O)CCCCCCCCCCCCC(=O)O)C(=O)O)C(=O)N[C@@H](CO)C(=O)N[C@@H](CO)C(=O)NCC(=O)N[C@@H](C)C(=O)N1CCC[C@H]1C(=O)N1CCC[C@H]1C(=O)N1CCC[C@H]1C(=O)N[C@@H](CO)C(N)=O [Example 40] | 0.163 nM | 0.301 nM | 0.0116 nM | > 9950 nM | > 9950 nM | 6.69 nM | 0.279 nM | – | – | – | –
2 | CC[C@H](C)[C@H](NC(=O)[C@H](CC(C)C)NC(=O)[C@](C)(Cc1ccc(O)cc1)NC(=O)[C@@H](CCC(=O)O)NC(=O)[C@@H](NC(=O)[C@H](Cc1ccccc1)NC(=O)[C@H](CCC(=O)O)NC(=O)C(C)(C)NC(=O)[C@H](CCC(N)=O)NC(=O)[C@H](C)NC(=O)[C@H](CCCCNC(=O)COCCOCCNC(=O)COCCOCCNC(=O)CC[C@H](NC(=O)CCCCCCCCCCCCC(=O)O)C(=O)O)NC(=O)[C@H](CCCN)NC(=O)[C@H](CC(=O)O)NC(=O)[C@H](CC(C)C)NC(=O)[C@](C)(CC(C)C)NC(=O)[C@@H](NC(=O)[C@H](CO)NC(=O)[C@H](CCc1ccc(O)cc1)NC(=O)[C@H](CC(=O)O)NC(=O)[C@H](CO)NC(=O)[C@@H](NC(=O)[C@](C)(Cc1ccccc1F)NC(=O)[C@@H](NC(=O)CNC(=O)[C@H](CCC(=O)O)NC(=O)C(C)(C)NC(=O)[C@@H](N)Cc1ccc(O)cc1)[C@@H](C)O)[C@@H](C)O)[C@@H](C)CC)[C@@H](C)CC)C(=O)N[C@@H](CCC(=O)O)C(=O)NCC(=O)NCC(=O)N[C@@H](CCCCNC(=O)COCCOCCNC(=O)COCCOCCNC(=O)CC[C@H](NC(=O)CCCCCCCCCCCCC(=O)O)C(=O)O)C(=O)N[C@@H](CO)C(=O)N[C@@H](CO)C(=O)NCC(=O)N[C@@H](C)C(=O)N1CCC[C@H]1C(=O)N1CCC[C@H]1C(=O)N1CCC[C@H]1C(=O)N[C@@H](CO)C(N)=O [Example 59] | 0.171 nM | – | 0.024 nM | > 9950 nM | > 9950 nM | – | 0.202 nM | 90.3 ± 3.64% | 89.2 ± 4.62% | – | –
3 | CCCC[C@H](NC(=O)[C@H](CC(=O)O)NC(=O)[C@H](CO)NC(=O)[C@@H](NC(=O)[C@](C)(Cc1ccccc1F)NC(=O)[C@@H](NC(=O)CNC(=O)[C@H](CCC(=O)O)NC(=O)C(C)(C)NC(=O)[C@@H](N)Cc1ccc(O)cc1)[C@@H](C)O)[C@@H](C)O)C(=O)N[C@@H](CO)C(=O)N[C@H](C(=O)N[C@@](C)(CC(C)C)C(=O)N[C@@H](CC(C)C)C(=O)N[C@@H](CC(=O)O)C(=O)N[C@@H](CCCN)C(=O)N[C@@H](CCCCNC(=O)COCCOCCNC(=O)COCCOCCNC(=O)CC[C@H](NC(=O)CCCCCCCCCCCCC(=O)O)C(=O)O)C(=O)N[C@@H](C)C(=O)N[C@@H](CCC(N)=O)C(=O)NC(C)(C)C(=O)N[C@@H](CCC(=O)O)C(=O)N[C@@H](Cc1ccccc1)C(=O)N[C@H](C(=O)N[C@H](CCC(=O)O)C(=O)N[C@@](C)(Cc1ccc(O)cc1)C(=O)N[C@@H](CC(C)C)C(=O)N[C@H](C(=O)N[C@@H](CCC(=O)O)C(=O)NCC(=O)NCC(=O)N[C@@H](CCCCNC(=O)COCCOCCNC(=O)COCCOCCNC(=O)CC[C@H](NC(=O)CCCCCCCCCCCCC(=O)O)C(=O)O)C(=O)N[C@@H](CO)C(=O)N[C@@H](CO)C(=O)NCC(=O)N[C@@H](C)C(=O)N1CCC[C@H]1C(=O)N1CCC[C@H]1C(=O)N1CCC[C@H]1C(=O)N[C@@H](CO)C(N)=O)[C@@H](C)CC)[C@@H](C)CC)[C@@H](C)CC [Example 60] | 0.11 nM | 1.2 nM | – | > 9950 nM | > 9950 nM | – | 0.19 nM | 89.4 ± 4.57% | 94 ± 6.07% | 111 ± 3.97% | 97.2 ± 4.28%
